According to ChEMBL document CHEMBL5252529, “Small Molecules in Development for the Treatment of Spinal Muscular Atrophy” (J Med Chem, 2016):
Converted amounts (≈) assume the structure as drawn.

Tests used:
[1] = Activation of rabbit psoas fast skeletal Myofibril; type: tissue-based, Oryctolagus cuniculus, Muscle tissue
[2] = Aqueous solubility of compound at pH 7.4; type: physicochemical; conditions: buffer
[3] = Half life in mouse liver microsomes; type: ADME, Microsome
[4] = Toxicity in Spinal muscular atrophy mouse assessed as survival rate at 10 mg/kg, ip administered daily; type: organism-based; conditions: in vivo
[5] = AUClast in Spinal muscular atrophy mouse plasma at 10 mg/kg, po by LC/MS-MS analysis; type: ADME, organism-based; design: dose 10 mg/kg, route po
[6] = Toxicity in Spinal muscular atrophy mouse assessed as survival rate at day 112 (reference value: 100 %); conditions: in vivo
[7] = AUClast in Spinal muscular atrophy mouse brain at 10 mg/kg, po by LC/MS-MS analysis; type: ADME, organism-based; design: dose 10 mg/kg, route po
[8] = Increase in SMN2 expression in human HEK293 cells assessed as luciferase reporter activity incubated for 24 hrs
[9] = biological target: T1, m7GpppX diphosphatase (Homo sapiens, UniProt Q96C86); assay: Inhibition of human DcpS
T1 sequence (Q96C86 whole entry): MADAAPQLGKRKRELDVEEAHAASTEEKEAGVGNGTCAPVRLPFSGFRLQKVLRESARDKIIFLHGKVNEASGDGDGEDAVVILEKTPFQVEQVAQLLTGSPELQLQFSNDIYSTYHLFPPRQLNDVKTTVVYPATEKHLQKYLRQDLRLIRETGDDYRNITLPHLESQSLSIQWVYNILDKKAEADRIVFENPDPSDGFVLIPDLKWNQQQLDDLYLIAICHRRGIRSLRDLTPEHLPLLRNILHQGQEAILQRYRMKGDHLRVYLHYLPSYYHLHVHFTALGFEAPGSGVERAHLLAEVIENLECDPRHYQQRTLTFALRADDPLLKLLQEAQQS

[10] = Toxicity in Spinal muscular atrophy mouse assessed as survival rate at 0.3 mg/kg, ip administered daily for 40 days; type: organism-based; conditions: in vivo, 960 h, time 40 day
[11] = tested on: Mus musculus; assay: Modulation of human SMN2 protein level in Spinal muscular atrophy mouse model assessed as increase in protein level of muscle tissue at 10 mg/kg, ip
[12] = Toxicity in Spinal muscular atrophy mouse assessed as survival rate at 1 to 3 mg/kg, po administered daily for 65 days; type: organism-based; conditions: in vivo, 1560 h, dose 1-3 mg/kg, time 65 day
[13] = tested on: Mus musculus; assay: Modulation of human SMN2 mRNA level in Spinal muscular atrophy mouse muscle tissue at 10 mg/kg, po measured after 4 hrs; type: functional
[14] = tested on: Mus musculus; assay: Modulation of human SMN2 mRNA level in Spinal muscular atrophy mouse brain tissue at 10 mg/kg, po measured after 4 hrs; type: functional
[15] = tested on: Mus musculus; assay: Modulation of human SMN2 protein level in Spinal muscular atrophy mouse model assessed as increase in protein level of brain tissue at 10 mg/kg, ip
[16] = Brain to plasma ratio in Spinal muscular atrophy mouse at 3 mg/kg administered subcutaneously for 7 days; type: ADME, organism-based; conditions: route sc, time 7 day, read-out: BPR
[17] = Brain to plasma ratio in Spinal muscular atrophy mouse at 3 mg/kg administered subcutaneously for 42 days; type: ADME, organism-based; conditions: route sc, time 42 day, read-out: BPR
[18] = Toxicity in Spinal muscular atrophy mouse assessed as survival rate (reference value: 15 %); conditions: in vivo
[19] = Half life in human serum measured upto 30 min by HPLC analysis
[20] = Acute toxicity in Spinal muscular atrophy mouse assessed as survival rate; conditions: in vivo
[21] = Toxicity in Spinal muscular atrophy mouse assessed as survival rate after 5 days; conditions: in vivo, 120 h, time 5 day
[22] = Toxicity in Spinal Muscular atrophy mouse assessed as increase in survival rate; conditions: in vivo

## C#Cc1cnc2nc(O)n(C(CC)CC)c2n1
[1]
  EC50: 3.4 µM

## CC(C)c1cc(C(=O)Nc2ccc(F)c(Cl)c2)no1
[2]
  solubility: 6 µM (≈ 1.7 µg/mL)
[3]
  half-life: 5 min

## CC(C)c1cc(C(=O)Nc2ccccc2)no1
[2]
  solubility: 59 µM (≈ 13.6 µg/mL)
[3]
  half-life: 5 min

## Nc1nc(N)c2c(OCC3CCN(Cc4c(Cl)cccc4Cl)CC3)cccc2n1
[4]
  Activity: 26%
[5]
  AUC(0-t): 157 ng·h/mL
[6]
  Activity: 27%
[7]
  AUC(0-t): 6760 ng·h/mL

## COc1cc2c(c(OC)c1OC)C(c1cc(Br)ccc1F)CC(=O)N2 (stereo not drawn)
[2]
  solubility: 4 µM (≈ 1.64 µg/mL)
[3]
  half-life: 40 min
[8]
  EC50 at 24 h: 8.3 µM

## CC(C)c1cc(C(=O)Nc2ccccn2)no1
[2]
  solubility: 77 µM (≈ 17.8 µg/mL)
[3]
  half-life: > 120 min

## Nc1nc(N)c2c(OCC3CCN(C(=O)c4cccc([125I])c4)CC3)cccc2n1
[9]
  IC50: 0.036 µM

## CCN1CCC(c2cc(C)c3nc(-c4cc5c(C)nc(C)cn5n4)cc(=O)n3c2)CC1
[10]
  Activity: 50%
[11]
  Activity: 90%
[12]
  Activity: 90%
[13]
  Activity: 50%
[14]
  Activity: 90%
[15]
  Activity: 150%

## CC(C)CCC[C@@H](C)[C@H]1CC[C@H]2[C@@H]3CCC4=CC(=NO)CC[C@]4(C)[C@H]3CC[C@]12C [OLESOXIME]
[16]
  Kp at 168 h: 0.35
[17]
  Kp at 1008 h: 0.51
[18]
  Activity: 45%

## CCCC(=O)[O-].[Na+] [SODIUM BUTYRATE]
[19]
  half-life at 0.5 h: 6 min

## CC(/C=C/C(=O)NO)=C\[C@@H](C)C(=O)c1ccc(N(C)C)cc1 [TRICHOSTATIN]
[20]
  Activity: 40%
[21]
  Activity: 19%

## O=C(CCCCCCC(=O)Nc1ccccc1)NO [VORINOSTAT]
[22]
  Activity: 30%
